Measurements: PubChem BioAssay (NCI)
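Cells were grown in 96-well plates and exposed to each compound for 48 hours at five concentrations; endpoints were interpolated linearly between bracketing concentrations, or set to the highest concentration if not reached. TGI marks complete inhibition of growth.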

Tests used:
Assay in all cases: NCI-60 cell line screen, 48 h
786-0 renal = test system: 786-0 renal
A498 renal = test system: A498 renal
A549 NSCLC = test system: A549 NSCLC
ACHN renal = test system: ACHN renal
BT-549 breast = test system: BT-549 breast
CAKI-1 renal = test system: CAKI-1 renal
CCRF-CEM leukemia = test system: CCRF-CEM leukemia
COLO 205 colon = test system: COLO 205 colon
DU-145 prostate = test system: DU-145 prostate
EKVX NSCLC = test system: EKVX NSCLC
HCC-2998 colon = test system: HCC-2998 colon
HCT-116 colon = test system: HCT-116 colon
HCT-15 colon = test system: HCT-15 colon
HL-60(TB) leukemia = test system: HL-60(TB) leukemia
HOP-62 NSCLC = test system: HOP-62 NSCLC
HOP-92 NSCLC = test system: HOP-92 NSCLC
HS 578T breast = test system: HS 578T breast
HT29 colon = test system: HT29 colon
IGROV1 ovarian = test system: IGROV1 ovarian
K-562 leukemia = test system: K-562 leukemia
KM12 colon = test system: KM12 colon
LOX IMVI melanoma = test system: LOX IMVI melanoma
M14 melanoma = test system: M14 melanoma
MALME-3M melanoma = test system: MALME-3M melanoma
MCF7 breast = test system: MCF7 breast
MDA-MB-231 breast = test system: MDA-MB-231 breast
MDA-MB-435 = test system: MDA-MB-435
MDA-N = test system: MDA-N
MOLT-4 leukemia = test system: MOLT-4 leukemia
NCI-H226 lung = test system: NCI-H226 lung
NCI-H23 lung = test system: NCI-H23 lung
NCI-H460 lung = test system: NCI-H460 lung
NCI-H522 lung = test system: NCI-H522 lung
NCI/ADR-RES ovarian = test system: NCI/ADR-RES ovarian
OVCAR-3 ovarian = test system: OVCAR-3 ovarian
OVCAR-4 ovarian = test system: OVCAR-4 ovarian
OVCAR-5 ovarian = test system: OVCAR-5 ovarian
OVCAR-8 ovarian = test system: OVCAR-8 ovarian
PC-3 prostate = test system: PC-3 prostate
RPMI-8226 leukemia = test system: RPMI-8226 leukemia
RXF 393 renal = test system: RXF 393 renal
SF-268 CNS = test system: SF-268 CNS
SF-295 CNS = test system: SF-295 CNS
SF-539 CNS = test system: SF-539 CNS
SK-MEL-2 melanoma = test system: SK-MEL-2 melanoma
SK-MEL-28 melanoma = test system: SK-MEL-28 melanoma
SK-MEL-5 melanoma = test system: SK-MEL-5 melanoma
SK-OV-3 ovarian = test system: SK-OV-3 ovarian
SN12C renal = test system: SN12C renal
SNB-19 CNS = test system: SNB-19 CNS
SNB-75 CNS = test system: SNB-75 CNS
SR leukemia = test system: SR leukemia
SW-620 colon = test system: SW-620 colon
T-47D breast = test system: T-47D breast
TK-10 renal = test system: TK-10 renal
U251 CNS = test system: U251 CNS
UACC-257 melanoma = test system: UACC-257 melanoma
UACC-62 melanoma = test system: UACC-62 melanoma
UO-31 renal = test system: UO-31 renal

Measured: TGI

CCCCCCCCCCCC(=O)N(CCCCCCCCCCC(=O)O)CC(O)C(O)C(OC1OC(CO)C(O)C(O)C1O)C(O)CO (centres undefined)
> 100 µM: all assays above
